Several values for one entry are separate records, joined by “and”; a condition that tells them apart may be missing. Equal values may be shown once.
Legend:
[1] = target: 2-acylglycerol O-acyltransferase 3 (MGAT3, MOGAT3) (Homo sapiens) (UniProt Q86VF5); test: Inhibition of MGAT3 (unknown origin) assessed effect on incorporation of [1-14C]decanoyl moiety into triacylglycerol using [1-14C]decanoyl-CoA and 1,2-didecanoyl-sn-glycerol as substrates pre-incubated for 30 mins before substrate addition
[2] = target: 2-acylglycerol O-acyltransferase 3 (MGAT3, MOGAT3) (Homo sapiens) (UniProt Q86VF5); test: Inhibition of human MGAT3 expressed in HEK293 cells assessed as effect on incorporation of [1,3-14C] glycerol into TAG by TLC method in presence of DGAT1 inhibitor PF-04620110 and DGAT2 inhibitor PF-06424439
[3] = target: 2-acylglycerol O-acyltransferase 1 (MGAT1, MOGAT1) (Homo sapiens) (UniProt Q96PD6); test: Inhibition of MGAT1 (unknown origin) assessed as effect on incorporation of [1-14C]decanoyl moiety into DAG using [1-14C]decanoyl-CoA and 2-oleoylglycerol as substrates
Sequence of 2-acylglycerol O-acyltransferase 1 (MGAT1, MOGAT1) (Homo sapiens) (Q96PD6 whole entry, looked up): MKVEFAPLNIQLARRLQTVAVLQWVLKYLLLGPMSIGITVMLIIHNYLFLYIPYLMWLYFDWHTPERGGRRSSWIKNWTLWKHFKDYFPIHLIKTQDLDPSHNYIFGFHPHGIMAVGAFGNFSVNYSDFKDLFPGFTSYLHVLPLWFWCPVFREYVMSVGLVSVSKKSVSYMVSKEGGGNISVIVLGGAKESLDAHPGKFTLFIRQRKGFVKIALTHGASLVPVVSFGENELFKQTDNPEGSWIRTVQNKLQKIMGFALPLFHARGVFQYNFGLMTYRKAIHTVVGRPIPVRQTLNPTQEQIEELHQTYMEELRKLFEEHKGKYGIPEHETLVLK

Sequence of 2-acylglycerol O-acyltransferase 3 (MGAT3, MOGAT3) (Homo sapiens) (Q86VF5 whole entry, looked up): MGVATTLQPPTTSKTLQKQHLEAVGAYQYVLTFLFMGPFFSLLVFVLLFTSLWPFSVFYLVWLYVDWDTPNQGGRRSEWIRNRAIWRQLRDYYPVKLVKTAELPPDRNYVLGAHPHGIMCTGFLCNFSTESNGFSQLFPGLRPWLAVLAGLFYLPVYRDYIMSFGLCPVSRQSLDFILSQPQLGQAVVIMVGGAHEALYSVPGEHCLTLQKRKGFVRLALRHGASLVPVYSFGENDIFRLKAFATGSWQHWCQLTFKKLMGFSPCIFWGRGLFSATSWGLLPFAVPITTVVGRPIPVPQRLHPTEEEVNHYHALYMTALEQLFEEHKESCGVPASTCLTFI

Compound | IC50 [1] | IC50 [2] | IC50 [3]
COc1cccc(CC(=O)N2Cc3ccc(S(=O)(=O)Nc4cnn(C5CCC5)n4)cc3C2)c1 | 92 nM and 100 nM | 205 nM and 204 nM | 14900 nM and 14800 nM
COc1cccc(CC(=O)N2Cc3ccc(S(=O)(=O)NCCc4cccc(F)c4)cc3C2)c1 | 682 nM and 631 nM |  | > 40000 nM
COc1cccc(CC(=O)N2Cc3ccc(S(=O)(=O)Nc4cnn(-c5ccc(F)cc5)n4)cc3C2)c1 | 6 nM |  | 
COc1cccc(CC(=O)N2Cc3ccc(S(=O)(=O)Nc4cnn(C5COC5)n4)cc3C2)c1 | 365 nM and 398 nM |  | 
COc1cccc(CC(=O)N2Cc3ccc(S(=O)(=O)N(C)CCc4cccc(F)c4)cc3C2)c1 | 2740 nM and 2510 nM |  | 
COc1cccc(CC(=O)N2Cc3ccc(S(=O)(=O)Nc4cnn(C5CC(F)(F)C5)n4)cc3C2)c1 |  | 394 nM and 389 nM | 
COc1cccc(CC(=O)N2Cc3ccc(S(=O)(=O)Nc4cnn(-c5ccccc5)n4)cc3C2)c1 | 6 nM |  | 
COc1cccc(CC(=O)N2Cc3ccc(S(=O)(=O)Nc4cnn(C)n4)cc3C2)c1 | 3840 nM and 3980 nM |  | 
COc1cccc(CC(=O)N2Cc3ccc(S(=O)(=O)Nc4cnn(C(C)C)n4)cc3C2)c1 | 597 nM and 631 nM |  | 
